In the supplement of paper PMC10307832:

Experiments:
Test in all cases: relative viability (nuclei count vs DMSO), 5 days (fraction); higher = more cells survive
EKVX = system: EKVX
Summary of the method: (§1)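 Relative viability is defined as nuclei in treated wells over nuclei in vehicle wells. Duplicate plates were run and medians reported. Lung cancer cell lines in 1536-well plates were dosed by pin tool one day after seeding, with one drug or with a fixed anchor-drug dose plus five library-drug doses (not always all listed) in √10 steps, and nuclei were counted after 5 days.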

H3255 = system: H3255
Summary of the method: as §1

HCC-15 = system: HCC-15
Summary of the method: as §1

HCC-827 = system: HCC-827
Summary of the method: as §1

LCLC-97TM1 = system: LCLC-97TM1
Summary of the method: as §1

LK-2 = system: LK-2
Summary of the method: as §1

NCI-H1355 = system: NCI-H1355
Summary of the method: as §1

NCI-H1650 = system: NCI-H1650
Summary of the method: as §1

NCI-H1734 = system: NCI-H1734
Summary of the method: as §1

NCI-H1755 = system: NCI-H1755
Summary of the method: as §1

NCI-H1975 = system: NCI-H1975
Summary of the method: as §1

NCI-H2342 = system: NCI-H2342
Summary of the method: as §1

NCI-H2405 = system: NCI-H2405
Summary of the method: as §1

NCI-H322M = system: NCI-H322M
Summary of the method: as §1

NCI-H520 = system: NCI-H520
Summary of the method: as §1

NCI-H661 = system: NCI-H661
Summary of the method: as §1

PC-14 = system: PC-14
Summary of the method: as §1

PC-3 [JPC-3] = system: PC-3 [JPC-3]
Summary of the method: as §1

RERF-LC-KJ = system: RERF-LC-KJ
Summary of the method: as §1

Compound: COc1cc2nccc(Oc3ccc(NC(=O)Nc4cc(C)on4)c(Cl)c3)c2cc1OC [Tivozanib] + Nc1ncn([C@H]2C[C@H](O)[C@@H](CO)O2)c(=O)n1 [Decitabine] (partner 2 µM)
- relative viability (EKVX; first compound 0.005 µM): 0.308
- relative viability (EKVX; first compound 0.01581 µM): 0.353
- relative viability (EKVX; first compound 0.05 µM): 0.386
- relative viability (EKVX; first compound 0.1581 µM): 0.363
- relative viability (EKVX; first compound 0.5 µM): 0.313
- relative viability (H3255; first compound 0.005 µM): 0.541
- relative viability (H3255; first compound 0.01581 µM): 0.592
- relative viability (H3255; first compound 0.05 µM): 0.591
- relative viability (H3255; first compound 0.1581 µM): 0.552
- relative viability (H3255; first compound 0.5 µM): 0.77
- relative viability (HCC-15; first compound 0.005 µM): 0.613
- relative viability (HCC-15; first compound 0.01581 µM): 0.612
- relative viability (HCC-15; first compound 0.05 µM): 0.641
- relative viability (HCC-15; first compound 0.1581 µM): 0.727
- relative viability (HCC-15; first compound 0.5 µM): 0.639
- relative viability (HCC-827; first compound 0.005 µM): 0.264
- relative viability (HCC-827; first compound 0.01581 µM): 0.345
- relative viability (HCC-827; first compound 0.05 µM): 0.311
- relative viability (HCC-827; first compound 0.1581 µM): 0.289
- relative viability (HCC-827; first compound 0.5 µM): 0.268
- relative viability (LCLC-97TM1; first compound 0.005 µM): 0.215
- relative viability (LCLC-97TM1; first compound 0.01581 µM): 0.22
- relative viability (LCLC-97TM1; first compound 0.05 µM): 0.297
- relative viability (LCLC-97TM1; first compound 0.1581 µM): 0.221
- relative viability (LCLC-97TM1; first compound 0.5 µM): 0.19
- relative viability (LK-2; first compound 0.005 µM): 0.275
- relative viability (LK-2; first compound 0.01581 µM): 0.322
- relative viability (LK-2; first compound 0.05 µM): 0.334
- relative viability (LK-2; first compound 0.1581 µM): 0.204
- relative viability (LK-2; first compound 0.5 µM): 0.206
- relative viability (NCI-H1355; first compound 0.005 µM): 0.318
- relative viability (NCI-H1355; first compound 0.01581 µM): 0.314
- relative viability (NCI-H1355; first compound 0.05 µM): 0.334
- relative viability (NCI-H1355; first compound 0.1581 µM): 0.333
- relative viability (NCI-H1355; first compound 0.5 µM): 0.363
- relative viability (NCI-H1650; first compound 0.005 µM): 0.412
- relative viability (NCI-H1650; first compound 0.01581 µM): 0.493
- relative viability (NCI-H1650; first compound 0.05 µM): 0.507
- relative viability (NCI-H1650; first compound 0.1581 µM): 0.508
- relative viability (NCI-H1650; first compound 0.5 µM): 0.411
- relative viability (NCI-H1734; first compound 0.005 µM): 0.493
- relative viability (NCI-H1734; first compound 0.01581 µM): 0.428
- relative viability (NCI-H1734; first compound 0.05 µM): 0.513
- relative viability (NCI-H1734; first compound 0.1581 µM): 0.431
- relative viability (NCI-H1734; first compound 0.5 µM): 0.5
- relative viability (NCI-H1755; first compound 0.005 µM): 0.716
- relative viability (NCI-H1755; first compound 0.01581 µM): 0.74
- relative viability (NCI-H1755; first compound 0.05 µM): 0.688
- relative viability (NCI-H1755; first compound 0.1581 µM): 0.744
- relative viability (NCI-H1755; first compound 0.5 µM): 0.704
- relative viability (NCI-H1975; first compound 0.005 µM): 0.36
- relative viability (NCI-H1975; first compound 0.01581 µM): 0.414
- relative viability (NCI-H1975; first compound 0.05 µM): 0.352
- relative viability (NCI-H1975; first compound 0.1581 µM): 0.362
- relative viability (NCI-H1975; first compound 0.5 µM): 0.405
- relative viability (NCI-H2342; first compound 0.005 µM): 0.678
- relative viability (NCI-H2342; first compound 0.01581 µM): 0.646
- relative viability (NCI-H2342; first compound 0.05 µM): 0.789
- relative viability (NCI-H2342; first compound 0.5 µM): 0.712
- relative viability (NCI-H2405; first compound 0.005 µM): 0.676
- relative viability (NCI-H2405; first compound 0.01581 µM): 0.771
- relative viability (NCI-H2405; first compound 0.05 µM): 0.756
- relative viability (NCI-H2405; first compound 0.1581 µM): 0.706
- relative viability (NCI-H2405; first compound 0.5 µM): 0.591
- relative viability (NCI-H322M; first compound 0.005 µM): 0.632
- relative viability (NCI-H322M; first compound 0.01581 µM): 0.55
- relative viability (NCI-H322M; first compound 0.05 µM): 0.762
- relative viability (NCI-H322M; first compound 0.1581 µM): 0.656
- relative viability (NCI-H322M; first compound 0.5 µM): 0.686
- relative viability (NCI-H520; first compound 0.005 µM): 0.442
- relative viability (NCI-H520; first compound 0.01581 µM): 0.448
- relative viability (NCI-H520; first compound 0.05 µM): 0.444
- relative viability (NCI-H520; first compound 0.1581 µM): 0.56
- relative viability (NCI-H520; first compound 0.5 µM): 0.351
- relative viability (NCI-H661; first compound 0.005 µM): 0.527
- relative viability (NCI-H661; first compound 0.01581 µM): 0.557
- relative viability (NCI-H661; first compound 0.05 µM): 0.592
- relative viability (NCI-H661; first compound 0.1581 µM): 0.514
- relative viability (NCI-H661; first compound 0.5 µM): 0.552
- relative viability (PC-14; first compound 0.005 µM): 0.195
- relative viability (PC-14; first compound 0.01581 µM): 0.214
- relative viability (PC-14; first compound 0.05 µM): 0.216
- relative viability (PC-14; first compound 0.1581 µM): 0.252
- relative viability (PC-14; first compound 0.5 µM): 0.153
- relative viability (PC-3 [JPC-3]; first compound 0.01581 µM): 0.843
- relative viability (PC-3 [JPC-3]; first compound 0.05 µM): 0.805
- relative viability (PC-3 [JPC-3]; first compound 0.1581 µM): 0.815
- relative viability (PC-3 [JPC-3]; first compound 0.5 µM): 0.831
- relative viability (RERF-LC-KJ; first compound 0.005 µM): 0.585
- relative viability (RERF-LC-KJ; first compound 0.01581 µM): 0.646
- relative viability (RERF-LC-KJ; first compound 0.05 µM): 0.657
- relative viability (RERF-LC-KJ; first compound 0.1581 µM): 0.637
- relative viability (RERF-LC-KJ; first compound 0.5 µM): 0.723
